From patent US20240425524A1, “SPIROTRICYCLE RIPK1 INHIBITORS AND METHODS OF USES THEREOF” (Merck Sharp & Dohme LLC, priority 2021, published 2024)

Target: RIPK1 (Homo sapiens (Human), UniProt Q13546)
Experiment: RIPK1-ADP-Glo Enzymatic Assay
Type: biochemical
Conditions: recombinant GST-RIPK1 kinase domain (residues 1-327), 25 nM, ten-point titration, 30 minutes pre-incubation
Procedure: The enzymatic activity of RIPK1 was measured using an assay derived from ADP-Glo kit (™Promega), which provides a luminescent-based ADP detection system. Specifically, the ADP generated by RIPK1 kinase was proportionally detected as luminescent signals in a homogenous fashion. In this context, the assessment of the inhibitory effect of small molecules (EC50) was measured by the effectiveness of the compounds to inhibit the ATP to ADP conversion by RIPK1.
In this assay, the potency (EC50) of each compound was determined from a ten-point (1:3 serial dilution: top compound concentration of 100000 nM) titration curve using the following outlined procedure. To each well of a white ProxiPlus 384 well-plate, 30 nL of compound (1% DMSO in final assay volume of 3 μL) was dispensed, followed by the addition of 2 μL of 1x assay buffer (25 mM Hepes 7.3, 20 mM MgCl2, 50 mM NaCl, 1 mM DTT, 0.005% Tween20, and 0.02% BSA) containing 37.5 nM of GST-RIPK1 (recombinant GST-RIPK1 kinase domain (residues 1-327) enzyme produced from baculovirus-transfected Sf21 cells: MW=62 kDa). Plates were placed in an ambient temperature humidified chamber for a 30 minutes pre-incubation with compound. Subsequently, each reaction was initiated by the addition of 1 μL 1× assay buffer containing […] dephosphorylated-MBP substrate. The final reaction in each well of 3 μL consists of 25 nM of GST-RIPK1, 300 µM ATP, and 3 μM dephosphorylated-MBP. Kinase reactions were allowed to proceed for 150 minutes prior to adding ADP-Glo reagents per Promega's outlined kit protocol. Dose-response curves were generated by plotting percent effect (% product conversion: Y-axis) vs. Logio compound concentrations (X-axis). EC50 values were calculated using a non-linear regression, four-parameters sigmoidal dose-response model and are provided for example compounds of the invention (labeled “RIPK1 EC50 (nM)” throughout the above examples).

RIPK1, sequence (Q13546 1-327): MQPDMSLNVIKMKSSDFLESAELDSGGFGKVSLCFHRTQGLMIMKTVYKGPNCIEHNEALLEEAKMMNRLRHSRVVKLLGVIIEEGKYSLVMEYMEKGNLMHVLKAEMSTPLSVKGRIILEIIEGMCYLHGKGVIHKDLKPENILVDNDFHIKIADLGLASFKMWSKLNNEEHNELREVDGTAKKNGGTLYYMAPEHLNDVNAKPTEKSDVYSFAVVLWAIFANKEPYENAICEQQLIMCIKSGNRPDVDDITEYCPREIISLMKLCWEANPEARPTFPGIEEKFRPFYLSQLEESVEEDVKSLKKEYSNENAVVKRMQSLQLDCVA

Compound | EC50 [nM]
NC(=O)c1ccnc(N2CCC3(CC2)CN2CC[C@@H](c4cc(F)cc(F)c4)N2C3=O)n1 [Example 1.24, (S)-2-(7′-(3,5-difluorophenyl)-1′-oxodihydro-1′H,3′H,5′H-spiro[piperidine-4,2′-pyrazolo[1,2-a]pyrazol]-1-yl)pyrimidine-4-carboxamide] | 136
Cc1cc(F)cc(C(=O)N2CCC3(CC2)CN2CC[C@@H](c4cc(F)cc(F)c4)N2C3=O)c1 [Example 4.18, (S)-7′-(3,5-difluorophenyl)-1-(3-fluoro-5-methylbenzoyl) dihydro-1′H,3′H,5′H-spiro[piperidine-4,2′-pyrazolo[1,2-a]pyrazol]-l′-one] | 18
O=C1N2[C@H](c3cc(F)cc(F)c3)CCN2CC12CCN(c1ncc(OC(F)F)cn1)CC2 [Example 1.25, (S)-1-(5-(difluoromethoxy)pyrimidin-2-yl)-7′-(3,5-difluorophenyl)dihydro-1′H,3′H,5′H-spiro[piperidine-4,2′-pyrazolo[1,2-a]pyrazol]-1′-one] | 38
O=C1N2[C@H](c3cc(F)cc(F)c3)CCN2CC12CCN(c1cnc(-c3ccccc3Cl)cn1)CC2 [Example 2.16, (S)-1-(5-(2-chlorophenyl)pyrazin-2-y1)-7′-(3,5-difluorophenyl)dihydro-1′H,3′H,5′H-spiro[piperidine-4,2′-pyrazolo[1,2-a]pyrazol]-1′-one] | 25
CSc1ncc(C)c(N2CCC3(CC2)CN2CC[C@@H](c4cc(F)cc(F)c4)N2C3=O)n1 [Example 1.66, (S)-7′-(3,5-difluorophenyl)-1-(5-methyl-2-(methylthio)pyrimidin-4-yl)dihydro-1′H,3′H,5′H-spiro[piperidine-4,2′-pyrazolo[1,2-a]pyrazol]-1′-one] | 673
N#Cc1cc(Cl)nc(N2CCC3(CC2)CN2CC[C@@H](c4cc(F)cc(F)c4)N2C3=O)c1 [Example 1.52, (S)-2-chloro-6-(7′-(3,5-difluorophenyl)-1′-oxodihydro-1′H,3′H,5′H-spiro[piperidine-4,2′-pyrazolo[1,2-a]pyrazol]-1-yl)isonicotinonitrile] | 54
COc1nccc(N2CCC3(CC2)CN2CC[C@@H](c4cc(F)cc(F)c4)N2C3=O)n1 [Example 1.84, (S)-7′-(3,5-difluorophenyl)-1-(2-methoxypyrimidin-4-yl)dihydro-1′H,3′H,5′H-spiro[piperidine-4,2′-pyrazolo[1,2-a]pyrazol]-1′-one] | 30
Cc1ccc(C(=O)N2CCC3(CC2)CN2CC[C@@H](c4cc(F)cc(F)c4)N2C3=O)cc1F [Example 4.22, (S)-7′-(3,5-difluorophenyl)-1-(3-fluoro-4-methylbenzoyl) dihydro-1′H,3′H,5′H-spiro[piperidine-4,2′-pyrazolo[1,2-a]pyrazol]-l′-one] | 46
Cc1cnn(-c2cnc(N3CCC4(CC3)CN3CC[C@@H](c5cc(F)cc(F)c5)N3C4=O)cn2)c1 [Example 2.15, (S)-7′-(3,5-difluorophenyl)-1-(5-(4-methyl-1H-pyrazol-1-yl)pyrazin-2-yl)dihydro-l′H,3′H,5′H-spiro[piperidine-4,2′-pyrazolo[1,2-a]pyrazol]-1′-one] | 80
O=C1N2[C@H](c3cc(F)cc(F)c3)CCN2CC12CCN(c1ncccn1)CC2 [Example 1.55, (S)-7′-(3,5-difluorophenyl)-1-(pyrimidin-2-yl)dihydro-1′H,3′H,5′H-spiro[piperidine-4,2′-pyrazolo[1,2-a]pyrazol]-1′-one] | 804
Cn1cnc(N2CCC3(CC2)CN2CC[C@@H](c4cc(F)cc(F)c4)N2C3=O)cc1=O [Example 1.91, (S)-7′-(3,5-difluorophenyl)-1-(1-methyl-6-oxo-1,6-dihydropyrimidin-4-yl)dihydro-1′H,3′H,5′H-spiro [piperidine-4,2′-pyrazolo[1,2-a]pyrazol]-1′-one] | 750
O=C1N2[C@H](c3cc(F)cc(F)c3)CCN2CC12CCN(c1cccc(F)n1)CC2 [Example 1.12, (7′S)-7′-(3,5-difluorophenyl)-1-(6-fluoropyridin-2-yl)dihydro-1′H,3′H,5′H-spiro[piperidine-4,2′-pyrazolo[1,2-a]pyrazol]-1′-one] | 29
O=C1N2[C@H](c3cc(F)cc(F)c3)CCN2CC12CCN(c1nnc(-c3ccccc3)o1)CC2 [Example 1.82, (S)-7′-(3,5-difluorophenyl)-1-(5-phenyl-1,3,4-oxadiazol-2-yl)dihydro-1′H,3′H,5′H-spiro[piperidine-4,2′-pyrazolo[1,2-a]pyrazol]-1′-one] | 333
CN(C)c1nc(Cl)cc(N2CCC3(CC2)CN2CC[C@@H](c4cc(F)cc(F)c4)N2C3=O)n1 [Example 1.30, (S)-1-(6-chloro-2-(dimethylamino)pyrimidin-4-yl)-7′-(3,5-difluorophenyl)dihydro-1′H,3′H,5′H-spiro[piperidine-4,2′-pyrazolo[1,2-a]pyrazol]-1′-one] | 110
CNC(=O)c1cc(N2CCC3(CC2)CN2CC[C@@H](c4cc(F)cc(F)c4)N2C3=O)ncn1 [Example 1.86, (S)-6-(7′-(3,5-difluorophenyl)-1′-oxodihydro-1′H,3′H,5′H-spiro[piperidine-4,2′-pyrazolo[1,2-a]pyrazol]-1-yl)-N-methylpyrimidine-4-carboxamide] | 555
O=C1N2[C@H](c3cc(F)cc(F)c3)CCN2CC12CCN(c1cccc(-n3nccc3C(F)(F)F)n1)CC2 [Example 2.12, (S)-7′-(3,5-difluorophenyl)-1-(6-(5-(trifluoromethyl)-1H-pyrazol-1-y1)pyridin-2-yl)dihydro-l′H,3′H,5′H-spiro[piperidine-4,2′-pyrazolo[1,2-a]pyrazol]-1′-one] | 6
O=C1N2[C@H](c3cc(F)cc(F)c3)CCN2CC12CCN(c1cc(-n3ccnc3)ncn1)CC2 [Example 1.18, (S)-1-(6-(1H-imidazol-1-yl)pyrimidin-4-yl)-7′-(3,5-difluorophenyl)dihydro-1′H,3′H,5′H-spiro[piperidine-4,2′-pyrazolo[1,2-a]pyrazol]-1′-one] | 27
O=C(c1c(F)ccc(F)c1F)N1CCC2(CC1)CN1CC[C@@H](c3cc(F)cc(F)c3)N1C2=O [Example 4.9, (S)-7′-(3,5-difluorophenyl)-1-(2,3,6-trifluorobenzoyl) dihydro-1′H,3′H,5′H-spiro[piperidine-4,2′-pyrazolo[1,2-a]pyrazol]-l′-one] | 31
Cn1nccc1-c1cc(N2CCC3(CC2)CN2CC[C@@H](c4cc(F)cc(F)c4)N2C3=O)ncn1 [Example 1.21, (S)-7′-(3,5-difluorophenyl)-1-(6-(1-methyl-1H-pyrazol-5-yl)pyrimidin-4-yl)dihydro-1′H,3′H,5′H-spiro[piperidine-4,2′-pyrazolo[1,2-a]pyrazol]-l′-one] | 15
O=C1N2[C@H](c3cc(F)cc(F)c3)CCN2CC12CCN(c1cccc(F)n1)CC2 [Example 1.71, (S)-7′-(3,5-difluorophenyl)-1-(6-fluoropyridin-2-yl)dihydro-1′H,3′H,5′H-spiro[piperidine-4,2′-pyrazolo[1,2-a]pyrazol]-1′-one] | 28
O=C1N2[C@H](c3cc(F)cc(F)c3)CCN2CC12CCN(Cc1ccc3ccccc3n1)CC2 [Example 6.1, (S)-7′-(3,5-difluorophenyl)-1-(quinolin-2-ylmethyl) dihydro-1′H,3′H,5′H-spiro [piperidine-4,2′-pyrazolo[1,2-α]pyrazol]-1′-one] | 706
CC(F)(F)c1ccnc(N2CCC3(CC2)CN2CC[C@@H](c4cc(F)cc(F)c4)N2C3=O)n1 [Example 1.77, (S)-1-(4-(1,1-difluoroethyl)pyrimidin-2-yl)-7′-(3,5-difluorophenyl)dihydro-1′H,3′H,5′H-spiro [piperidine-4,2′-pyrazolo[1,2-a]pyrazol]-1′-one] | 200
O=C(c1cncc(F)c1)N1CCC2(CC1)CN1CC[C@@H](c3cc(F)cc(F)c3)N1C2=O [Example 4.17, (S)-7′-(3,5-difluorophenyl)-1-(5-fluoronicotinoyl) dihydro-1′H,3′H,5′H-spiro[piperidine-4,2′-pyrazolo[1,2-a]pyrazol]-l′-one] | 446
O=C(c1cc(F)c(F)cc1F)N1CCC2(CC1)CN1CC[C@@H](c3cc(F)cc(F)c3)N1C2=O [Example 4.11, (S)-7′-(3,5-difluorophenyl)-1-(2,4,5-trifluorobenzoyl) dihydro-1′H,3′H,5′H-spiro[piperidine-4,2′-pyrazolo[1,2-a]pyrazol]-l′-one] | 19
O=C1N2[C@H](c3cc(F)cc(F)c3)CCN2CC12CCN(c1ncc(Br)cn1)CC2 [Example 1.54, (S)-1-(5-bromopyrimidin-2-yl)-7′-(3,5-difluorophenyl)dihydro-1′H,3′H,5′H-spiro[piperidine-4,2′-pyrazolo[1,2-a]pyrazol]-1′-one] | 17
O=C1N2[C@H](c3cc(F)cc(F)c3)CCN2CC12CCN(c1noc3ccccc13)CC2 [Example 1.81, (S)-1-(benzo[d]isoxazol-3-yl)-7′-(3,5-difluorophenyl)dihydro-1′H,3′H,5′H-spiro[piperidine-4,2′-pyrazolo[1,2-a]pyrazol]-1′-one] | 366
